Assay results reported in patent US20120264735A1 (priority 2009, published 2012).
pIC50: −log10 of the molar value.

Each compound was assayed against T1, c-Met kinase (recombinant c-Met) (Homo sapiens, UniProt P08581) (assay: In vitro kinase assay I (homogeneous time-resolved fluorescence tyrosine kinase assay)).
T1 construct: 0.27 nM recombinant c-Met
T1 sequence (P08581 25-1390): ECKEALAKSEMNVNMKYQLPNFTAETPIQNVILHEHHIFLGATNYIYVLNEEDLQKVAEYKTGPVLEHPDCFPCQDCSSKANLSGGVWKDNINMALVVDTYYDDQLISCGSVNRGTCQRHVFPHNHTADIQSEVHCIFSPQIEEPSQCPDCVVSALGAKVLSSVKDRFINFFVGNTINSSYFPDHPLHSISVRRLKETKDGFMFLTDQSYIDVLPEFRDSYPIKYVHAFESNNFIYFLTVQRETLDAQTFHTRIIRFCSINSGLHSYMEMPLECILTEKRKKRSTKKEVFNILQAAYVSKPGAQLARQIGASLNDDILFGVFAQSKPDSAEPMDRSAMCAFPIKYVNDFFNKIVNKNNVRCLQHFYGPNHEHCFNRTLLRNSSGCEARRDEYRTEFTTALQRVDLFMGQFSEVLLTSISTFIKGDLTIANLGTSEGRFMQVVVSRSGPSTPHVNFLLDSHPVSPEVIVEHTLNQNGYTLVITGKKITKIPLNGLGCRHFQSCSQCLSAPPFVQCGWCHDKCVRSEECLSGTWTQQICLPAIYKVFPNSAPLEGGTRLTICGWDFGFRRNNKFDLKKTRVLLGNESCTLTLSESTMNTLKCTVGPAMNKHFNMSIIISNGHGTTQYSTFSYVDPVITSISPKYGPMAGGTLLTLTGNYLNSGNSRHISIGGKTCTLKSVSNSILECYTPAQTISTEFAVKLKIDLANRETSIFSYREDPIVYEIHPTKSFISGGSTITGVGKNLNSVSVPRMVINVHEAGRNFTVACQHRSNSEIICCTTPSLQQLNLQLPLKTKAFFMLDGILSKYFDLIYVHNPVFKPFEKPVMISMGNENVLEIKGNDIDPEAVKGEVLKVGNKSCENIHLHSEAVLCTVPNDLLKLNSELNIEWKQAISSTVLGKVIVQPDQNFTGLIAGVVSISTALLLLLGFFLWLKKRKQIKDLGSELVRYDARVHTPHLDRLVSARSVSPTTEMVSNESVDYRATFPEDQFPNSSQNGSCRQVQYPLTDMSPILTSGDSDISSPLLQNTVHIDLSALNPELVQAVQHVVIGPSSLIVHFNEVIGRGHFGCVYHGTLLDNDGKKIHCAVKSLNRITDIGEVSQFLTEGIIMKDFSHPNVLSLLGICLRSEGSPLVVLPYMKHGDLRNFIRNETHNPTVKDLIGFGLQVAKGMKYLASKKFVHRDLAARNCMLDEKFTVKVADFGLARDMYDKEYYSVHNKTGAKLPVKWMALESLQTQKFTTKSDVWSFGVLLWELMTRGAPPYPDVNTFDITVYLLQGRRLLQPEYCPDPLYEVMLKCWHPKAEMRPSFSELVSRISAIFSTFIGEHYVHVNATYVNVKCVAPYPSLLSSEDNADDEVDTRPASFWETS
Type: biochemical
Outline: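 Biotinylated peptide (0.5 μM) phosphorylated by 0.2 nM recombinant c-Met with 50 μM MgATP, 60 min at room temperature, pH 7.4, 5% DMSO. EDTA stop; HTRF read with Eu-anti-phosphotyrosine antibody and streptavidin-APC. IC50 from 4-parameter logistic fit.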
For `Cn1cc(-n2ccc(=O)c(Cc3cccc(-c4ncc(OC5CCOC5)cn4)c3)n2)cn1` (racemic) [Example 276, rac-1-(1-methyl-1H-pyrazol-4-yl)-3-{3-[5-(tetrahydrofuran-3-yloxy)pyrimidin-2-yl]benzyl}pyridazin-4(1H)-one], the pIC50 was > 7.00.
For `Cn1cc(-n2ccc(=O)c(Cc3cccc(NC(=O)OCCN4CCNCC4)c3)n2)cn1` [Example 625, 2-piperazin-1-ylethyl (3-{[1-(1-methyl-1H-pyrazol-4-yl)-4-oxo-1,4-dihydropyridazin-3-yl]methyl}phenyl)carbmate], the pIC50 was > 7.00.
`CCCOC(=O)Nc1cccc(Cc2nn(-c3cnn(CC4CCOCC4)c3)ccc2=O)c1` [Example 101, propyl [3-({4-oxo-1-[1-(tetrahydro-2H-pyran-4-ylmethyl)-1H-pyrazol-4-yl]-1,4-dihydropyridazin-3-yl}methyl)phenyl]carbamate] showed a pIC50 of 6.00 to 7.00.
For `CCn1cc(-n2ccc(=O)c(Cc3cccc(-c4ncc(OC5COC5)cn4)c3)n2)cn1` [Example 165, 1-(1-ethyl-1H-pyrazol-4-yl)-3-{3-[5-(oxetan-3-yloxy)pyrimidin-2-yl]benzyl}pyridazin-4(1H)-one], the pIC50 was > 7.00.
For `N#Cc1cc(F)cc(-n2ccc(=O)c(Cc3cccc(NC(=O)OCC4CCOC4)c3)n2)c1` (racemic) [Example 131, rac-tetrahydrofuran-3-ylmethyl (3-{[1-(3-cyano-5-fluorophenyl)-4-oxo-1,4-dihydropyridazin-3-yl]methyl}phenyl)carbamate], the pIC50 was > 7.00.
`CCOC(=O)Nc1cccc(C(C)c2nn(-c3ccccc3)ccc2=O)c1` (racemic) [Example 651, rac-Ethyl {3-[1-(4-oxo-1-phenyl-1,4-dihydropyridazin-3-yl)ethyl]phenyl}carbamate] was tested, and the pIC50 was 6.00 to 7.00.
With `CCOc1cnc(-c2cccc(C(C)c3nn(-c4cccc(C#N)c4)ccc3=O)c2)nc1` (racemic) [Example 224, rac-3-[3-{1-[3-(5-ethoxypyrimidin-2-yl)phenyl]ethyl}-4-oxopyridazin-1(4H)-yl]benzonitrile] the pIC50 was > 7.00.
For `COCCOc1cnc(-c2cccc(Cc3nn(-c4cncc(C#N)c4)ccc3=O)c2)nc1` [Example 132, 5-[3-{3-[5-(2-methoxyethoxy)pyrimidin-2-yl]benzyl}-4-oxopyridazin-1(4H)-yl]pyridine-3-carbonitrile], the pIC50 was > 7.00.
In the case of `Cn1cc(-n2ccc(=O)c(Cc3cccc(-c4ncc(N)cn4)c3)n2)cn1` [Example 183, 3-[3-(5-Aminopyrimidin-2-yl)benzyl]-1-(1-methyl-1H-pyrazol-4-yl)pyridazin-4(1H)-one], the pIC50 was > 7.00.
For `CC(C)COC(=O)Nc1cccc(Cc2nn(-c3ccc(Br)cc3)ccc2=O)c1` [Example 68, 2-methylpropyl (3-{[1-(4-bromophenyl)-4-oxo-1,4-dihydropyridazin-3-yl]methyl}phenyl)carbamate], the pIC50 was > 7.00.
For `CCn1cc(-n2ccc(=O)c(Cc3cccc(-c4ncc(OCc5cc(C)no5)cn4)c3)n2)cn1` [Example 313, 1-(1-ethyl-1H-pyrazol-4-yl)-3-(3-{5-[(3-methylisoxazol-5-yl)methoxy]primidin-2-yl}benzyl)pyridazin-4(1H)-one], the pIC50 was > 7.00.
`CCn1cc(-n2ccc(=O)c(C(C)c3cccc(-c4ncc(OCC5COCCO5)cn4)c3)n2)cn1` (single isomer, unassigned) [Example 299, 3-[(1R or S)-1-{3-[5-(1,4-dioxan-2-ylmethoxy)pyrimidin-2-yl]phenyl}ethyl]-1-(1-ethyl-1H-pyrazol-4-yl)pyriazin-4(1H)-one] was tested, and the pIC50 was > 7.00.
With `Cn1cc(-n2ccc(=O)c(Cc3cccc(-c4ncc(NC(=O)OC(C)(C)C)cn4)c3)n2)cn1` [Example 159, tert-butyl [2-(3-{[1-(1-methyl-1H-pyrazol-4-yl)-4-oxo-1,4-dihydropyridazin-3-yl]methyl}phenyl)pyrimidin-5-yl]carbamate] the pIC50 was > 7.00.
For `CCn1cc(-n2ccc(=O)c(C(C)c3cccc(-c4ncc(OC)cn4)c3)n2)cn1` (single isomer, unassigned) [Example 332, 1-(1-ethyl-1H-pyrazol-4-yl)-3-{(1S or R)-1-[3-(5-methoxypyrimidin-2-yl)phenyl]ethyl}pyridazin-4(1H)-one], the pIC50 was 6.00 to 7.00.
With `O=C(Nc1cccc(Cc2nn(-c3cc(F)cc(F)c3)ccc2=O)c1)OCCOCC(F)(F)F` [Example 595, 2-(2,2,2-trifluoroethoxy)ethyl (3-{[1-(3,5-difluorophenyl)-4-oxo-1,4-dihydropyridazin-3-yl]methyl}phenyl)carbamate] the pIC50 was > 7.00.
`Cn1cc(-n2ccc(=O)c(Cc3cccc(NC(=O)OCC4(F)CCOCC4)c3)n2)cn1` [Example 613, (4-fluorotetrahydro-2H-pyran-4-yl)methyl (3-{[1-(1-methyl-1H-pyrazol-4-yl)-4-oxo-1,4-dihydropyridazin-3-yl]methyl}phenyl)carbamate] was tested, and the pIC50 was > 7.00.
In the case of `Cn1cc(-n2ccc(=O)c(Cc3cccc(NC(=O)OCC4CCC4)c3)n2)cn1` [Example 538, cyclobutylmethyl (3-{[1-(1-methyl-1H-pyrazol-4-yl)-4-oxo-1,4-dihydropyridazin-3-yl]methyl}phenyl)carbamate], the pIC50 was > 7.00.
With `COCCOc1cnc(-c2cccc(Cc3nn(-c4cc(F)cc(F)c4)ccc3=O)c2)nc1` [Example 149, 1-(3,5-difluorophenyl)-3-{3-[5-(2-methoxyethoxy)pyrimidin-2-yl]benzyl}pyridazin-4(1H)-one] the pIC50 was > 7.00.
In the case of `COCCOC(=O)Nc1cccc(C(C)c2nn(-c3cnn(C)c3)ccc2=O)c1` (single isomer, unassigned) [Example 652, 2-methoxyethyl (3-{(1S or R)-1-[1-(1-methyl-1H-pyrazol-4-yl)-4-oxo-1,4-dihydropyridazin-3-yl]ethyl}phenyl)carbamate], the pIC50 was > 7.00.
For `CCCOC(=O)Nc1cccc(Cc2nn(-c3cnn(C(C)C)c3)ccc2=O)c1` [Example 104, propyl [3-({1-[1-(1-methylethyl)-1H-pyrazol-4-yl]-4-oxo-1,4-dihydropyridazin-3-yl}methyl)phenyl]carbamate], the pIC50 was > 7.00.
For `Cn1cc(-n2ccc(=O)c(Cc3cccc(-c4ncc(C5C=CCO5)cn4)c3)n2)cn1` (racemic) [Example 174, rac-3-{3-[5-(2,5-Dihydrofuran-2-yl)pyrimidin-2-yl]benzyl}-1-(1-methyl-1H-pyrazol-4-yl)pyridazin-4(1H)-one], the pIC50 was > 7.00.
In the case of `CCc1cnc(-c2cccc(C(C)c3nn(-c4cnn(C)c4)ccc3=O)c2)nc1` (single isomer, unassigned) [Example 237, 3-{(1R or S)-1-[3-(5-ethylpyrimidin-2-yl)phenyl]ethyl}-1-(1-methyl-1H-pyrazol-4-yl)pyridazin-4(1H)-one], the pIC50 was > 7.00.
With `O=C(Nc1cccc(Cc2nn(-c3cc(F)cc(F)c3)ccc2=O)c1)OCC1COCCO1` (racemic) [Example 520, rac-1,4-dioxan-2-ylmethyl (3-{[1-(3,5-difluorophenyl)-4-oxo-1,4-dihydropyridazin-3-yl]methyl}phenyl)carbamate] the pIC50 was > 7.00.
In the case of `COCCOC(=O)Nc1cccc(Cc2nn(-c3cc(F)cc(C#N)c3)ccc2=O)c1` [Example 73, 2-methoxyethyl (3-{[1-(3-cyano-5-fluorophenyl)-4-oxo-1,4-dihydropyridazin-3-yl]methyl}phenyl)carbamate], the pIC50 was > 7.00.
In the case of `CC(c1cccc(-c2ncc(N3CCOCC3)cn2)c1)c1nn(-c2cnn(C)c2)ccc1=O` (single isomer, unassigned) [Example 243, 1,1-methyl-1H-pyrazol-4-yl)-3-{(1S or R)-1-[3-(5-morpholin-4-ylpyrimidin-2-yl)phenyl]ethyl}pyridazin-4(1H) one], the pIC50 was > 7.00.
In the case of `CCn1cc(-n2ccc(=O)c(C(C)c3cccc(-c4ncc(OC5COC5)cn4)c3)n2)cn1` (single isomer, unassigned) [Example 214, 1-(1-ethyl-1H-pyrazol-4-yl)-3-((1R or S)-1-{3-[5-(oxetan-3-yloxy)pyrimidin-2-yl]phenyl}ethyl)pyridazin-4(1H)-one], the pIC50 was > 7.00.
`COC(=O)Nc1cccc(Cc2nn(-c3cnn(C)c3)ccc2=O)c1` [Example 497, Methyl(3-{[1-(1-methyl-1H-pyrazol-4-yl)-4-oxo-1,4-dihydropyridazin-3-yl]methyl}phenyl)carbamate] was tested, and the pIC50 was > 7.00.
For `Cn1cc(-n2ccc(=O)c(Cc3cccc4c3CNC4=O)n2)cn1` [Example 45, 4-{[1-(1-methyl-1H-pyrazol-4-yl)-4-oxo-1,4-dihydropyridazin-3-yl]methyl}-2,3-dihydro-1H-isoindol-1-one], the pIC50 was 5.52 to 6.00.
`Cn1cc(-n2ccc(=O)c(Cc3cccc(-c4ncc(CO)s4)c3)n2)cn1` [Example 676, 3-{3-[5-(hydroxymethyl)-1,3-thiazol-2-yl]benzyl}-1-(1-methyl-1H-pyrazol-4-yl)pyridazin-4(1H)-one] was tested, and the pIC50 was 6.00 to 7.00.
For `Cn1cc(-n2ccc(=O)c(Cc3cccc(-c4ncc(OCc5ccccc5)cn4)c3)n2)cn1` [Example 67, 3-{3-[5-(benzyloxy)pyrimidin-2-yl]benzyl}-1-(1-methyl-1H-pyrazol-4-yl)pyridazin-4(1H)-one], the pIC50 was > 7.00.
With `CCn1cc(-n2ccc(=O)c(Cc3cccc(-c4ncc(OCCOC)cn4)c3)n2)cn1` [Example 151, 1-(1-ethyl-1H-pyrazol-4-yl)-3-{3-[5-(2-methoxyethoxy)pyrimidin-2-yl]benzyl}pyridazin-4(1H)-one] the pIC50 was > 7.00.
For `Cn1cc(-n2ccc(=O)c(Cc3cccc(NC(=O)CCc4ccccc4)c3)n2)cn1` [Example 633, N-(3-{[1-(1-methyl-1H-pyrazol-4-yl)-4-oxo-1,4-dihydropyridazin-3-yl]methyl}phenyl)-3-phenylpropanamide], the pIC50 was > 7.00.
For `CCOc1cnc(-c2cccc(Cc3nn(-c4ccc(C(=O)NC)c(F)c4)ccc3=O)c2)nc1` [Example 723], the pIC50 was > 7.00.
In the case of `COCCCOc1cnc(-c2cccc(Cc3nn(-c4ccc(F)c(F)c4)ccc3=O)c2)nc1` [Example 320, 1-(3,4-difluorophenyl)-3-{3-[5-(3-methoxypropoxy)pyrimidin-2-yl]benzyl}pyridazin-4(1H)-one], the pIC50 was > 7.00.
With `CCOc1cnc(-c2cccc(Cc3nn(-c4cccc(C(N)=O)c4)ccc3=O)c2)nc1` [Example 736, 3-[3-[3-(5-ethoxypyrimidin-2-yl)benzyl]-4-oxopyridazin-1(4H)-yl]benzamide] the pIC50 was > 7.00.
